The source of these data is US6703426B1, “Treatment of breast cancer” (University of Central Florida, priority 2001, dated 2004).

The test system of data set [1] is human breast cancer cells (ATCC HTB123). The data set is described as follows: Cytotoxicity assay (MTS/PMS), growth inhibition of human breast cancer cells. In kind it is cell-based. Set-up: concentration or dose not given beside the values. The following applies: approximately 48 hours growth with test compound. The protocol: The activity in human breast cancer of the novel compounds (as earlier reported) was realized by the following procedure which determines the inhibitory effect of test samples on the growth of human breast cancer cells.
(ATCC HTB123) The HTB123 cells are grown in RPMI 1640 media+10% Fetal bovine serum+4.5 g/L glucose+10 mM HEPES+1.0 mM sodium pyruvate+1% Antibiotic/Antimycotic for approximately 48 hours at 37° C./5% CO2 in the presence of the test compound.
Growth/Non-Growth of the cells (e.g., cell density) is determined using Promega's MTS/PMS assay system. MTS (3-(4,5-dimethylthiazol-2-yl)-5-(3-carboxymethoxyphenyl)-2-(4-sulfophenyl)-2H-tetrazolium, inner salt) is an aqueous compound that is reduced to soluble formazan by the presence of NADH formed by dehydrogenases present within the HTB123 cells. The absorbance of the formazan can be measured at 490 nm and is directly proportional to the number of living cells present in the culture. PMS (Phenazine Methosulfate) is added an electron coupling reagent and greatly increases the rate of reduction.
To facilitate a full understanding of the procedure the following definitions are offered:
Test wells—wells containing test sample and Diluted HTB 123 cells
Test values—absorbance of test wells
Blank wells—wells containing test sample and HTB 123 media (HHTB2-01S); used to obtain background absorbance due to test sample
Blank values—absorbance of blank wells.
Negative Control—maximal cell growth; results of test samples will be expressed as a percent of the Negative Control
Positive Control—known inhibitor of HTB123 cells; used to validate assay system
Matrix—solvent that the samples are prepared/diluted in
Assay samples of similar origin and matrix (e.g., methanol extraction, methylene chloride extraction, water soluble samples, etc.) together on the same plate in order to reduce the number of steps performed per plate.
Blank values will be determined for each sample to account for any color contribution due to the sample itself. These blank wells must contain the same amount of sample plus HTB123 media (no cells). After completion of MTS/PMS reaction blank values will be subtracted from the test value to obtain a net absorbance that will be used to calculate cell density.
All results are based upon a comparison to the Negative Control value of the plate. The Negative Control must contain the same amount of matrix (e.g., solvent) to offset any destructive effect the matrix may have on the growth of the HTB123 cells (allows for baseline values to be set).
For most samples, a HTB123 cell growth (diluted two to four-fold, depending upon the appearance of the inoculum*) of approximately 48 hours followed by and incubation of 3 hours with the MTS/PMS Reagent is optimal.
*Due to the nature of the HTB123 cells it is very difficult to obtain accurate cell densities. Continuation of the HTB123 cell line typically consists of the dilution of mature cells at two or three-fold into fresh media and growth at 37° C./5% CO2 for two to three days.
In order to establish the accuracy of this assay a Positive Control consisting of 50 μM Methotrexate should […] 90% of the Negative Control (HTB123 cells are somewhat resistant to methotrexate) is utilized.

In data set [2] the test system is white mice. The experiment in a line: Animal toxicity bioassay (acute toxicity, LD50). Particulars: intraperitoneal injection, observed 14 days. In kind it is in vivo.
Data set [3] is described as follows: Animal toxicity bioassay (acute toxicity, LD50). In kind it is in vivo. Particulars: both sexes, mouse, in vivo, ip, white mice, intraperitoneal injection, observed 14 days.
Data set [4] is described as follows: Solubility in solvents and water. In kind it is physicochemical. Particulars: for Solubility in organic solvents: organic solvents as listed.
The nature of another data set: Stability in solution. Particulars: solution heated or stored for a long time; decomposes with formation of OF-12. In kind it is physicochemical.
The conditions of data set [5]: background statement; cited from earlier work.
Data set [6] relates to white mice. Particulars: same bioassay system (JZKEDZ 6,1,1980); cited from earlier work.
The mark [7] stands for this setting: read-out: LD50 (animal toxicity).

Where two headings read alike, the source gives them in different places.

In general, LD50 refers to the dose at which mortality reaches 50%.

Turning to `COC(=O)/C(=C/C(=O)c1ccccc1)NN=C1c2ccccc2-c2ccccc21` [1F-04, 2-(N′-Fluoren-9-ylidene-hydrazino)-4-oxo-4-phenyl-but-2-enoic acid methyl ester], in data set [1], the “Activity (ATCC HTB123)” value amounted to 93%. Also, in the data set on white mice [2], the “LD50” value is more than 1000 mg/kg.

In the case of `COC(=O)C1(O)C(C(=O)c2ccc(C)cc2)=C(O)C(=O)N1c1ccc(C)cc1C` (centres unmarked) [1F-07, 1-(2,4-Dimethyl-phenyl)-2,4-dihydroxy-3-(4-methyl-benzoyl)-5-oxo-2,5-dihydro-1H-pyrrole-2-carboxylic acid methyl ester], the “percent activity against human breast carcinoma” value (from here on “percent activity”) in data set [1] came out at 100%. Also, the LD50 at 14 days in data set [3] (setting [7]) is more than 500 mg/kg. Moreover, in data set [4], the “Solubility in organic solvents” value is reported as “highly soluble in DMSO, acetonitrile, slightly soluble in dichloroethane, benzene, insoluble in hexane tetrachloromethane” and the Solubility in water result was “insoluble”.

With `COc1ccc(C(=O)C(=NNc2ccccc2)C(=O)C(=O)O)cc1` [3F-10, 4-(4-Methoxy-phenyl)-2,4-dioxo-3-(phenyl-hydrazono)-butyric acid], the “percent activity” value in data set [1] is recorded as 100%. For the same compound, the LD50 at 14 days in data set [3] (setting [7]) is less than 750 mg/kg. Besides, the “Solubility in organic solvents” value in data set [4] is listed as “highly soluble in DMSO, DMFA, slightly soluble in chloroform, dichloroethane; insoluble in hexanes”.

On to `CCOC(=O)C(=O)C(=NNc1ccccc1)C(=O)c1ccc(Cl)cc1` [3F-11, 4-(4-Chloro-phenyl)-2,4-dioxo-3-(phenyl-hydrazono)-butyric acid ethyl ester], for which, in data set [1], the “percent activity” value is given as 100%. Also, the LD50 at 14 days in data set [3] (setting [7]) is more than 2000 mg/kg.

`COc1c(F)c(F)c(C(=O)C=C(O)C(=O)O)c(F)c1F` [3F-15, 2-Hydroxy-4-oxo-4-(2,3,5,6-tetrafluoro-4-methoxy-phenyl)-but-2-enoic acid]: in data set [1], the “percent activity” value is 100%. The LD50 at 14 days in data set [3] (setting [7]) was more than 200 mg/kg.

As for `Cc1ccc(C(=O)C2=NN(c3ccccc3)C(=O)C2(O)O)cc1` [3F-16, 4,4-Dihydroxy-5-(4-methyl-benzoyl)-2-phenyl-2,4-dihydro-pyrazol-3-one], in data set [1], the “percent activity” value is on record as 100%. The 50% lethal dose (LD50) at 14 days in data set [3] (setting [7]) is more than 500 mg/kg. In data set [4], the “Solubility in organic solvents” value is “highly soluble in DMSO, dioxane” and the Solubility in water entry is on record as “insoluble”.

As for `CCOc1ccc(C(Cl)=CC(=NN=C2c3ccccc3-c3ccccc32)C(=O)OC)cc1` [3F-19, 4-Chloro-4-(4-ethoxy-phenyl)-2-(fluoren-9-ylidene-hydrazono)-but-3-enoic acid methyl ester], the “Activity (ATCC HTB123)” value in data set [1] amounted to 100%. Also, the 50% lethal dose (LD50) at 14 days in data set [3] (read-out: LD50) was more than 200 mg/kg.

For `COC(=O)C(=CC(=O)C(C)(C)C)NN=C1c2ccccc2-c2ccccc21` [OF-06, 2-(N′-Fluoren-9-ylidene-hydrazino)-5,5-dimethyl-4-oxo-hex-2-enoic acid methyl ester], in data set [1], the “percent activity” value was determined as 100%. Further, in data set [4], the “Solubility in organic solvents” value was “highly soluble in DMSO, DMFA, dichloroethane, acetonitrile, slightly soluble in ethanol, tetrachloromethane, insoluble in hexane” and the Solubility in water entry was “insoluble”.

With `CCOc1ccc(C(=O)CC(O)(NN=C2c3ccccc3-c3ccccc32)C(=O)OC)cc1` (centres unmarked) [OF-13, 4-(4-Ethoxy-phenyl)-2-(N′-fluoren-9-ylidene-hydrazino)-2-hydroxy-4-oxo-butyric acid methyl ester], the “Activity (ATCC HTB123)” value in data set [1] is 100%. In the data set with white mice [2], the “LD50” value was more than 1500 mg/kg. For the same compound, the “Solubility in organic solvents” value in data set [4] is reported as “highly soluble in DMSO, DMFA, dichloroethane, acetonitrile, insoluble in hexane”. Moreover, the Stability in solutions result in the data set “Stability in solution” is given as “not stable in solutions”.

Regarding `COC(=O)/C(=C/C(=O)c1ccccc1)N/N=C(\C)c1ccc(Cl)cc1` [OF-20, 2-{N′-[1-(4-Chloro-phenyl)-ethylidene]-hydrazino}-4-oxo-4-phenyl-but-2-enoic acid methyl ester], in data set [1], the “Activity (ATCC HTB123)” value is listed as 83%.

As for `CC(=O)O[C@H]1C(=O)[C@@]2(C)[C@H]([C@H](OC(=O)c3ccccc3)[C@]3(O)C[C@H](OC(=O)[C@H](O)[C@@H](NC(=O)c4ccccc4)c4ccccc4)C(C)=C1C3(C)C)[C@]1(OC(C)=O)CO[C@@H]1C[C@@H]2O` [Taxol], the Solubility in water result in data set [5] is given as “insoluble in water”. Also, the “intraperitoneal LD50 dose in mice” value in the data set with white mice [6] was 218 mg/kg.
